Experimental data from PubChem BioAssay AID330 (DTP/NCI, 2004).
“And” between values parts separate entries of the source, which are not always exact repeats. Identical values can stand only once. Inconclusive results and toxic doses are left out. How the source made its calls: active means survival T/C of 150% or more; inactive means T/C below 125% in these data.

System: P388 leukemia ip, CD2F1 mice, survival T/C
Assay: NCI In Vivo Anticancer Drug Screen. Data for tumor model P388 Leukemia (intraperitoneal) in CD2F1 (CDF1) mice
Conditions: endpoint: median survival time, higher = longer survival
How it was run: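 Mice carrying the transplanted tumor received test compound or vehicle. Survival was recorded in each group, and the value is the treated-group measurement divided by that of the vehicle-treated control group.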

[1] = dose: 60.0 mg/kg/injection, schedule: Q01DX005 (ip), vehicle: saline with Tween-80
[2] = dose: 120.0 mg/kg/injection, schedule: Q01DX005 (ip), vehicle: saline with Tween-80
[3] = dose: 240.0 mg/kg/injection, schedule: Q01DX005 (ip), vehicle: saline with Tween-80
[4] = dose: 50.0 mg/kg/injection, schedule: Q01DX009 (ip), vehicle: Klucel (hydroxypropylcellulose) (HPC)
[5] = dose: 100.0 mg/kg/injection, schedule: Q01DX009 (ip), vehicle: Klucel (hydroxypropylcellulose) (HPC)
[6] = dose: 200.0 mg/kg/injection, schedule: Q01DX009 (ip), vehicle: Klucel (hydroxypropylcellulose) (HPC)
[7] = dose: 100.0 mg/kg/injection, schedule: Q04DX002 (ip), vehicle: Klucel (hydroxypropylcellulose) (HPC)
[8] = dose: 200.0 mg/kg/injection, schedule: Q04DX002 (ip), vehicle: Klucel (hydroxypropylcellulose) (HPC)
[9] = dose: 100.0 mg/kg/injection, schedule: Q01DX001 (ip), vehicle: saline with Tween-80
[10] = dose: 6.25 mg/kg/injection, schedule: Q01DX005 (ip), vehicle: Klucel (hydroxypropylcellulose) (HPC)
[11] = dose: 12.5 mg/kg/injection, schedule: Q01DX005 (ip), vehicle: Klucel (hydroxypropylcellulose) (HPC)
[12] = dose: 25.0 mg/kg/injection, schedule: Q01DX005 (ip), vehicle: Klucel (hydroxypropylcellulose) (HPC)

Measured: T/C

FC(F)(F)C1(C(F)(F)F)O[Te]2(OC(C(F)(F)F)(C(F)(F)F)c3ccccc32)c2ccccc21
inactive: dose: 80.0 mg/kg/injection, schedule: Q04DX002 (ip), vehicle: Klucel (hydroxypropylcellulose) (HPC) 96 % of control | dose: 160.0 mg/kg/injection, schedule: Q04DX002 (ip), vehicle: Klucel (hydroxypropylcellulose) (HPC) 102 % of control | dose: 320.0 mg/kg/injection, schedule: Q04DX002 (ip), vehicle: Klucel (hydroxypropylcellulose) (HPC) 105 % of control

CC(C)(c1ccccc1)[N+](C)(C)C
inactive: dose: 5.0 mg/kg/injection, schedule: Q01DX009 (ip), vehicle: saline with Tween-80 100 % of control | dose: 10.0 mg/kg/injection, schedule: Q01DX009 (ip), vehicle: saline with Tween-80 104 % of control | dose: 10.0 mg/kg/injection, schedule: Q04DX003 (ip), vehicle: saline 90 % of control | dose: 20.0 mg/kg/injection, schedule: Q01DX009 (ip), vehicle: saline with Tween-80 109 % of control | dose: 20.0 mg/kg/injection, schedule: Q04DX003 (ip), vehicle: saline 95 % of control

NC(=S)N/N=C1/CC(=O)N(c2ccccc2)C1c1ccccc1 (configuration not stated)
inactive: [1] 103 % of control | [2] 98 % of control | [3] 94 % of control

CN(C)C(=O)N1CCc2ccc([N+](=O)[O-])cc21
inactive: [4] 104 % of control | [5] 100 % of control | [6] 98 % of control

CCOC(=O)n1oc2c(Br)cc(Br)cc2c1=O
inactive: dose: 50.0 mg/kg/injection, schedule: Q04DX002 (ip), vehicle: Klucel (hydroxypropylcellulose) (HPC) 105 % of control | [7] 99 % of control | [8] 101 % of control

[Cl][Hg][CH]1CCC2OC1CC[CH]2[Hg][Cl] (configuration not stated)
inactive: dose: 1.56 mg/kg/injection, schedule: Q01DX009 (ip), vehicle: saline with Tween-80 112 % of control | dose: 3.12 mg/kg/injection, schedule: Q01DX009 (ip), vehicle: saline with Tween-80 105 % of control and 118 % of control | dose: 6.25 mg/kg/injection, schedule: Q01DX009 (ip), vehicle: saline with Tween-80 121 % of control and 91 % of control | dose: 12.5 mg/kg/injection, schedule: Q01DX009 (ip), vehicle: saline with Tween-80 94 % of control

COc1ccc(C(=O)CC(C(=O)O)c2ccc3c(c2)OCO3)cc1OC (configuration not stated)
inactive: dose: 100.0 mg/kg/injection, schedule: Q04DX003 (ip), vehicle: saline with Tween-80 100 % of control | dose: 200.0 mg/kg/injection, schedule: Q04DX003 (ip), vehicle: saline with Tween-80 90 % of control | dose: 400.0 mg/kg/injection, schedule: Q04DX003 (ip), vehicle: saline with Tween-80 90 % of control

CC(/C=N/Nc1ccccc1)=N\N=c1/scc(-c2ccc(Br)cc2)n1-c1ccc(Br)cc1
inactive: dose: 100.0 mg/kg/injection, schedule: Q04DX002 (ip), vehicle: saline with Tween-80 86 % of control | dose: 200.0 mg/kg/injection, schedule: Q04DX002 (ip), vehicle: saline with Tween-80 86 % of control

O=C(Nc1ccc([N+](=O)[O-])cc1)C1C(=O)C(=O)N(c2ccc([N+](=O)[O-])cc2)C1=O (configuration not stated)
inactive: [4] 107 % of control | [5] 100 % of control | [6] 104 % of control

Cc1cc(Oc2ccc(Cl)cc2NC(=O)Nc2cccc(C(F)(F)F)c2)cc(S(=O)(=O)O)c1Cl
inactive: [9] 100 % of control

O=C1OC2(CC1n1cnc3ccccc3c1=O)C(=O)Nc1ccccc12 (configuration not stated)
inactive: dose: 8.75 mg/kg/injection, schedule: Q01DX005 (ip), vehicle: Klucel (hydroxypropylcellulose) (HPC) 111 % of control | dose: 17.5 mg/kg/injection, schedule: Q01DX005 (ip), vehicle: Klucel (hydroxypropylcellulose) (HPC) 90 % of control | dose: 35.0 mg/kg/injection, schedule: Q01DX005 (ip), vehicle: Klucel (hydroxypropylcellulose) (HPC) 91 % of control

CN=C(NC)c1ccc(NC(=O)Nc2ccc(C)c(NC(=O)Nc3ccc(C(=NC)NC)cc3)c2)cc1
inactive: dose: 1.56 mg/kg/injection, schedule: Q01DX005 (ip), vehicle: saline 96 % of control | dose: 3.12 mg/kg/injection, schedule: Q01DX005 (ip), vehicle: saline 99 % of control | dose: 6.25 mg/kg/injection, schedule: Q01DX005 (ip), vehicle: saline 96 % of control | dose: 6.25 mg/kg/injection, schedule: Q01DX005 (ip), vehicle: suspension in saline 103 % of control

CCCC(CCC)(C(=O)Nc1ccc2nc(C)cc(N)c2c1)C(=O)Nc1ccc2nc(C)cc(N)c2c1
inactive: dose: 50.0 mg/kg/injection, schedule: Q01DX005 (ip), vehicle: saline with Tween-80 91 % of control | dose: 100.0 mg/kg/injection, schedule: Q01DX005 (ip), vehicle: saline with Tween-80 96 % of control

Cc1nc2[nH]cc(-c3ccccc3)c2c(=N)n1-c1ccc(F)cc1
inactive: [10] 101 % of control | [11] 101 % of control | [12] 102 % of control

Cc1cc(=Nc2ccc3c(c2)c(N)cc(C)[n+]3C)nc(N)n1C
inactive: [10] 107 % of control | [11] 107 % of control | [12] 104 % of control

CCOC1=C(C)N2/C(=C/C(=O)OC)[C@@H]3C[C@@H](C)C[C@]2(O3)S1
inactive: [1] 101 % of control | [2] 94 % of control | [3] 104 % of control

COc1ccc(-c2cnnn2Cc2ccco2)cc1
inactive: [7] 105 % of control | [8] 100 % of control | dose: 400.0 mg/kg/injection, schedule: Q04DX002 (ip), vehicle: Klucel (hydroxypropylcellulose) (HPC) 102 % of control

CCc1nc(N)nc(N)c1-c1ccc(Cl)c(S(=O)(=O)O)c1
inactive: [1] 103 % of control | [2] 98 % of control | [3] 98 % of control

Cn1c(=O)[nH]c(Sc2ccccc2)c(C=O)c1=O
inactive: [9] 104 % of control | dose: 200.0 mg/kg/injection, schedule: Q01DX001 (ip), vehicle: saline with Tween-80 101 % of control

Cc1ccc(O)c(C(=NCCCCN=C(c2ccccc2)c2cc(C)ccc2O)c2ccccc2)c1.[Ni]
inactive: [12] 97 % of control | dose: 50.0 mg/kg/injection, schedule: Q01DX005 (ip), vehicle: Klucel (hydroxypropylcellulose) (HPC) 97 % of control | dose: 100.0 mg/kg/injection, schedule: Q01DX005 (ip), vehicle: Klucel (hydroxypropylcellulose) (HPC) 103 % of control | dose: 200.0 mg/kg/injection, schedule: Q01DX005 (ip), vehicle: Klucel (hydroxypropylcellulose) (HPC) 94 % of control

COC1(OC)C2(Cl)C(Cl)=C(Cl)C1(Cl)C1CCCCCC12 (configuration not stated)
inactive: [1] 97 % of control | [2] 97 % of control | [3] 101 % of control

OCCNC(=S)Nc1ccccc1
inactive: dose: 7.5 mg/kg/injection, schedule: Q01DX009 (ip), vehicle: saline with Tween-80 104 % of control | dose: 15.0 mg/kg/injection, schedule: Q01DX009 (ip), vehicle: saline with Tween-80 100 % of control

Cc1ccc(Nc2c3ccccc3nc3c2cnn3-c2ccccc2)cc1
inactive: dose: 60.0 mg/kg/injection, schedule: Q01DX005 (ip), vehicle: Klucel (hydroxypropylcellulose) (HPC) 91 % of control | dose: 120.0 mg/kg/injection, schedule: Q01DX005 (ip), vehicle: Klucel (hydroxypropylcellulose) (HPC) 90 % of control | dose: 240.0 mg/kg/injection, schedule: Q01DX005 (ip), vehicle: Klucel (hydroxypropylcellulose) (HPC) 87 % of control

CCCCCCCCCCCCCCCC(O)CC(O)CC(O)CC1CC=CC(=O)O1 (configuration not stated)
inactive: dose: 4.0 mg/kg/injection, schedule: Q01DX009 (ip), vehicle: Klucel (hydroxypropylcellulose) (HPC) 100 % of control | dose: 8.0 mg/kg/injection, schedule: Q01DX009 (ip), vehicle: Klucel (hydroxypropylcellulose) (HPC) 100 % of control | dose: 16.0 mg/kg/injection, schedule: Q01DX009 (ip), vehicle: Klucel (hydroxypropylcellulose) (HPC) 104 % of control | dose: 32.0 mg/kg/injection, schedule: Q01DX009 (ip), vehicle: Klucel (hydroxypropylcellulose) (HPC) 109 % of control
